Measured values taken from US12258329B2 (Merck Sharp & Dohme LLC, priority 2018, dated 2025).
Like-named read-outs stand apart in the source and are kept apart here.

Tested on: infected PBMCs (VSV-G pseudotyped HIV virus VSV-G/pNLG1-P2A-ΔEnv)
Test: cells
Type: cell-based, human
Details: read-out: TACK EC50

| Compound | EC50 | EC50 (Homo sapiens, PBMC) |
| --- | --- | --- |
| (S) or (R)-3,5-dichloro-4-((1-((2,4- dimethyl-6-oxo-1,6-dihydropyrimidin- 5-y1)methyl)-4-(1-fluoroethyl)-6-oxo- 1,6-dihydropyrimidin-5-yl)oxy) benzonitrile [Example 17] | 0.282 µM | – |
| Cc1nc(C)c(Cn2cnc(C(F)(F)C(F)F)c(Oc3cc(Cl)cc(C#N)c3F)c2=O)c(=O)[nH]1 [Example 81, 5-chloro-3-((1-((2,4-dimethyl-6-oxo-1,6-dihydropyrimidin-5-yl)methyl)-6-oxo-4-(1,1,2,2-tetrafluoroethyl)-1,6-dihydropyrimidin-5-yl)oxy)-2-fluorobenzonitrile] | – | 0.156 µM |
| Cc1cc(C#N)cc(Oc2c(C(F)(F)C(F)(F)F)ncn(Cc3c(C)nc(C)[nH]c3=O)c2=O)c1 [Example 88] | – | 0.397 µM |
| Cc1c(C#N)cc(C(F)F)cc1Oc1c(C(F)(F)C(F)F)ncn(Cc2cnc(N)[nH]c2=O)c1=O [Example 57, 3-((1-((2-amino-6-oxo-1,6-dihydropyrimidin-5-yl)methyl)-6-oxo-4-(1,1,2,2-tetrafluoroethyl)-1,6-dihydropyrimidin-5-yl)oxy)-5-(difluoromethyl)-2-methylbenzonitrile] | – | 0.493 µM |
| Cc1nc(N)c(Cn2cnc(C(F)(F)C(F)F)c(Oc3cc(Cl)cc(C#N)c3F)c2=O)c(=O)[nH]1 [Example 39, 3-((1-((4-amino-2-methyl-6-oxo-1,6-dihydropyrimidin-5-yl)methyl)-6-oxo-4-(1,1,2,2-tetrafluoroethyl)-1,6-dihydropyrimidin-5-yl)oxy)-5-chloro-2-fluorobenzonitrile] | – | 0.265 µM |
| Cc1nc(C)c(Cn2cnc(C(F)(F)C(F)(F)F)c(Oc3cccc(C#N)c3C)c2=O)c(=O)[nH]1 [Example 74, 3-((1-((2,4-dimethyl-6-oxo-1,6-dihydropyrimidin-5-yl)methyl)-6-oxo-4-(perfluoroethyl)-1,6-dihydropyrimidin-5-yl)oxy)-2-methylbenzonitrile] | – | 0.484 µM |
| Cc1nc(C)c(Cn2cnc(C(F)(F)C(F)(F)F)c(Oc3c(Cl)cc(C#N)cc3Cl)c2=O)c(=O)[nH]1 [Example 96, 3,5-dichloro-4-((1-((2,4-dimethyl-6-oxo-1,6-dihydropyrimidin-5-yl)methyl)-6-oxo-4-(perfluoroethyl)-1,6-dihydropyrimidin-5-yl)oxy)benzonitrile] | – | 0.367 µM |
| Cc1cc(C#N)c(Cl)c(Oc2c(C(F)(F)C(F)F)ncn(Cc3c(C)nc(C)[nH]c3=O)c2=O)c1 [Example 68, 2-chloro-3-((1-((2,4-dimethyl-6-oxo-1,6-dihydropyrimidin-5-yl)methyl)-6-oxo-4-(1,1,2,2-tetrafluoroethyl)-1,6-dihydropyrimidin-5-yl)oxy)-5-methylbenzonitrile] | – | 0.478 µM |
| Cc1nc(C)c(Cn2cnc(C(F)(F)C(F)(F)F)c(Oc3cc(Br)cc(C#N)c3Cl)c2=O)c(=O)[nH]1 [Example 82, 5-bromo-2-chloro-3-((1-((2,4-dimethyl-6-oxo-1,6-dihydro-pyrimidin-5-yl)methyl)-6-oxo-4-(perfluoroethyl)-1,6-dihydro-pyrimidin-5-yl)oxy)benzonitrile] | – | 0.531 µM |
| Cc1nc(C)c(Cn2cnc(C(F)(F)C(F)(F)F)c(Oc3cc(C(F)F)cc(C#N)c3C)c2=O)c(=O)[nH]1 [Example 83] | – | 0.252 µM |
| Cc1nc(C)c(Cn2cnc(C(F)(F)C(F)F)c(Oc3c(C)cc(C#N)cc3C(F)F)c2=O)c(=O)[nH]1 [Example 20, 3-(difluoromethyl)-4-((1-((2,4-dimethyl-6-oxo-1,6-dihydropyrimidin-5-yl)methyl)-6-oxo-4-(1,1,2,2-tetrafluoroethyl)-1,6-dihydropyrimidin-5-y1)oxy)-5-methylbenzonitrile] | – | 0.365 µM |
| Cc1nc(C)c(Cn2cnc(C(F)(F)C(F)F)c(Oc3c(C)cc(C#N)cc3C3CC3)c2=O)c(=O)[nH]1 [Example 19, 3-cyclopropyl-4-((1-((2,4-dimethyl-6-oxo-1,6-dihydropyrimidin-5-yl)methyl)-6-oxo-4-(1,1,2,2-tetrafluoroethyl)-1,6-dihydropyrimidin-5-yl)oxy)-5-methylbenzonitrile] | – | 0.315 µM |
| Cc1nc(C)c(Cn2cnc(C(F)(F)C(F)(F)F)c(Oc3c(F)ccc(C#N)c3F)c2=O)c(=O)[nH]1 [Example 71, 3-((1-((2,4-dimethyl-6-oxo-1,6-dihydropyrimidin-5-yl)methyl)-6-oxo-4-(perfluoroethyl)-1,6-dihydropyrimidin-5-yl)oxy)-2,4-difluorobenzonitrile] | – | 0.149 µM |
| Cc1nc(C2CC2)c(Cn2cnc(C(F)(F)C(F)F)c(Oc3cc(C(F)F)cc(C#N)c3C)c2=O)c(=O)[nH]1 [Example 62] | – | 0.406 µM |
| Cc1nc(C)c(Cn2cnc(C(F)(F)C(F)F)c(Oc3cc(Cl)cc(C#N)c3N)c2=O)c(=O)[nH]1 [Example 27, 2-amino-5-chloro-3-((1-((2,4-dimethyl-6-oxo-1,6-dihydropyrimidin-5-yl)methyl)-6-oxo-4-(1,1,2,2-tetrafluoroethyl)-1,6-dihydropyrimidin-5-yl)oxy)benzonitrile] | – | 0.451 µM |
| Cc1nc(CO)[nH]c(=O)c1Cn1cnc(C(F)(F)C(F)F)c(Oc2cc(Cl)cc(C#N)c2F)c1=O [Example 45, 5-chloro-2-fluoro-3-((1-((2-(hydroxymethyl)-4-methyl-6-oxo-1,6-dihydropyrimidin-5-yl)methyl)-6-oxo-4-(1,1,2,2-tetrafluoroethyl)-1,6-dihydropyrimidin-5-yl)oxy)benzonitrile] | – | 0.257 µM |
| Cc1c(C#N)cc(C(F)F)cc1Oc1c(C(F)(F)C(F)F)ncn(Cc2cnc(-c3cnn(C)c3)[nH]c2=O)c1=O [Example 47, 5-(difluoromethyl)-2-methyl-3-((1-((2-(1-methyl-1H-pyrazol-4-yl)-6-oxo-1,6-dihydropyrimidin-5-yl)methyl)-6-oxo-4-(1,1,2,2-tetrafluoroethyl)-1,6-dihydropyrimidin-5-yl)oxy)benzonitrile] | – | 0.394 µM |
| Cc1nc(C)c(Cn2cnc(C(C)(F)F)c(Oc3c(C)cc(C#N)cc3C(F)(F)F)c2=O)c(=O)[nH]1 [Example 16, 4-((4-(1,1-difluoroethyl)-1-((4-hydroxy-2,6-dimethylpyrimidin-5-yl)methyl)-6-oxo-1,6-dihydropyrimidin-5-yl)oxy)-3-methyl-5-(trifluoromethyl)benzonitrile] | – | 0.199 µM |
| COc1c(C#N)cc(C(F)F)cc1Oc1c(C(F)(F)C(F)F)ncn(Cc2cnc(C)[nH]c2=O)c1=O [Example 1, 5-(difluoromethyl)-2-methoxy-3-((1-((2-methyl-6-oxo-1,6-dihydropyrimidin-5-yl)methyl)-6-oxo-4-(1,1,2,2-tetrafluoroethyl)-1,6-dihydropyrimidin-5-yl)oxy)benzonitrile] | – | 0.431 µM |
| Cc1nc(CCCO)[nH]c(=O)c1Cn1cnc(C(F)(F)C(F)F)c(Oc2cc(C(F)F)cc(C#N)c2C)c1=O [Example 49, 5-(difluoromethyl)-3-((1-((2-(3-hydroxypropyl)-4-methyl-6-oxo-1,6-dihydropyrimidin-5-yl)methyl)-6-oxo-4-(1,1,2,2-tetrafluoroethyl)-1,6-dihydropyrimidin-5-yl)oxy)-2-methylbenzonitrile] | – | 0.278 µM |
| Cc1nc(C)c(Cn2cnc(C(F)(F)C(F)(F)F)c(Oc3c(C)cc(C#N)cc3C)c2=O)c(=O)[nH]1 [Example 78, 4-((1-((2,4-dimethyl-6-oxo-1,6-dihydropyrimidin-5-yl)methyl)-6-oxo-4-(perfluoroethyl)-1,6-dihydropyrimidin-5-yl)oxy)-3,5-dimethylbenzonitrile] | – | 0.156 µM |
| Cc1nc(COc2ncccn2)[nH]c(=O)c1Cn1cnc(C(C)(F)F)c(Oc2cc(C(F)F)cc(C#N)c2C)c1=O [Example 25, 3-((4-(1,1-difluoroethyl)-1-((4-methyl-6-oxo-2-((pyrimidin-2-yloxy)methyl)-1,6-dihydropyrimidin-5-yl)methyl)-6-oxo-1,6-dihydropyrimidin-5-yl)oxy)-5-(difluoromethyl)-2-methylbenzonitrile] | – | 0.353 µM |
| Cc1nc(C)c(Cn2cnc(C(F)(F)CF)c(Oc3cc(C(F)F)cc(C#N)c3C)c2=O)c(=O)[nH]1 [Example 5, 5-(difluoromethyl)-3-((1-((2,6-dimethyl-4-oxo-4,5-dihydropyrimidin-5-yl)methyl)-6-oxo-4-(1,1,2-trifluoroethyl)-1,6-dihydropyrimidin-5-yl)oxy)-2-methylbenzonitrile] | – | 0.187 µM |
| Cc1nc(C)c(Cn2cnc(C(C)F)c(Oc3cc(Cl)cc(C#N)c3F)c2=O)c(=O)[nH]1 (single isomer, unassigned) [Example 30] | – | 0.206 µM |
| Cc1nc(C)c(Cn2cnc(C(F)(F)C(F)(F)F)c(Oc3cc(Cl)cc(C#N)c3Cl)c2=O)c(=O)[nH]1 [Example 80, 2,5-dichloro-3-((1-((2,4-dimethyl-6-oxo-1,6-dihydropyrimidin-5-yl)methyl)-6-oxo-4-(perfluoroethyl)-1,6-dihydropyrimidin-5-yl)oxy)benzonitrile] | – | 0.34 µM |
| Cc1ncc(Cn2cnc(C(F)(F)C(F)F)c(Oc3cc(C#N)cc(C(F)F)c3)c2=O)c(=O)[nH]1 [Example 2, 3-(difluoromethyl)-5-((1-((2-methyl-6-oxo-1,6-dihydropyrimidin-5-yl)methyl)-6-oxo-4-(1,1,2,2-tetrafluoroethyl)-1,6-dihydropyrimidin-5-yl)oxy)benzonitrile] | – | 0.411 µM |
| Cc1nc(C)c(Cn2cnc(C(C)F)c(Oc3cc(C(F)F)cc(C#N)c3F)c2=O)c(=O)[nH]1 (single isomer, unassigned) [Example 33, (R) or (S)-5-(difluoromethyl)-3-((1-((2,4-dimethyl-6-oxo-1,6-dihydropyrimidin-5-yl)methyl)-4-(1-fluoroethyl)-6-oxo-1,6-dihydropyrimidin-5-yl)oxy)-2-fluorobenzonitrile] | 0.208 µM | – |
| CCc1nc(C)[nH]c(=O)c1Cn1cnc(C(F)(F)C(F)F)c(Oc2cc(C(F)F)cc(C#N)c2C)c1=O [Example 61, 5-(difluoromethyl)-3-((1-((4-ethyl-2-methyl-6-oxo-1,6-dihydropyrimidin-5-yl)methyl)-6-oxo-4-(1,1,2,2-tetrafluoroethyl)-1,6-dihydropyrimidin-5-yl)oxy)-2-methylbenzonitrile] | – | 0.485 µM |
